The values below come from patent US20230218654A1, “COMPOSITIONS AND METHODS FOR TREATING HYPERGLYCEMIA IN TYPE-2 DIABETES” (The Board of Regents of the university of Oklahoma, priority 2020, published 2023).

For one assay, the system named is high fat diet-fed mice. To be noted: i.p. injection; cited from earlier work.
Assay [1] has as its system male mice fed WD for 6 weeks. The experiment in a line: Insulin tolerance test (ITT). The format is in vivo. Conditions: WD 6 weeks, 60 mg/kg SQ twice. The protocol: Male C7BL/6J mice were first fed WD for 6 weeks, and then treated with 60 mg/kg MLN6924 via subcutaneous (SQ) injection at 5 pm on day 1 and 9 am on day 2. Mice were fasted from 9 am to 3 pm on day 2 and insulin tolerance test was performed with 0.5 U/kg insulin i.p. injection (n=5). All results are expressed as mean ± SEM. “*”, p<0.05, vs. Vehicle group at the same time point. Unpaired Student’s t-test was used to calculate the p value.
Mice were treated with 2 doses of MLN4924 as described. After the second injection at 9 am, mice were fasted for 6 h from 9 am to 3 pm. Mice were injected intraperitoneally […] for PTT, and 0.5 U/kg insulin for ITT. Blood glucose was measured with a OneTouch Ultra glucose meter.

Assay [2] deals with differentiated C2C12 myocytes. The experiment in a line: Western blot of insulin signaling in differentiated C2C12 myocytes. To be noted: 500 nM, 1 h, then 100 nM insulin in time course. In kind it is cell-based. The protocol: Differentiated C2C12 myocytes were pre-treated with MLN4924 (500 nM) for 1 h followed by 100 nM insulin treatment in time course.
C2C12 myoblast cells were cultured in DMEM medium supplemented with 10% FBS. When cells grow to 60% confluency, differentiation into myocytes was induced by culturing cells in DMEM supplemented with 2% horse serum for 4-6 days. Cells were then serum starved overnight and treated with 500 nM MLN4924 or DMSO for 6 h and then stimulated with 100 nM insulin for 1 hour as indicated. Glucose uptake was measured with a Glucose uptake Glo^tm assay kit that was purchased from Promega (Madison, WI).
Skeletal muscle is a major organ that is responsible for the majority of the blood glucose clearance during postprandial state. Insulin resistance in muscle causes impaired insulin-stimulated glucose uptake that contributes to hyperglycemia in diabetes. To determine if CRL inhibition in muscle cells may contribute to the insulin sensitizing and glucose lowering effect in obese mice, differentiated C2C12 myocytes were treated with MLN4924 to inhibit CRLs (FIG. 8A). […] To further determine if MLN4924 treatment increases muscle glucose clearance, a glucose tolerance test (GTT) was performed, in which reduction of glucose excursion is mainly attributed to blood glucose clearance by muscle.
On the technique in general: In western blotting, separated proteins are transferred to a membrane and probed.

The test system of assay [3] is primary mouse hepatocytes. The experiment in a line: Western blot of insulin signaling in primary mouse hepatocytes. In kind it is cell-based. Conditions: 500 nM, 1 h. The protocol: MLN4924 enhances hepatocyte insulin responsiveness by delaying feedback IRS degradation (related to FIG. 18A). Cells were serum starved for 16 h then pre-treated with 500 nM MLN4924 for 1 h followed by 100 nM insulin stimulation in time course. Blots are representative of 2 independent experiments.
AML12 cells were a generous gift from Dr. Yanqiao Zhang (Northeast Ohio Medical University). AML12 cells were cultured in DMEM medium supplemented with a mixture of insulin-transferrin-selenium (#41400-045, ThermoFisher, Waltham, MA). For experiments, cells were cultured in serum free medium overnight before various treatments were initiated. The siGENOME SMARTpool siRNA and siControl were purchased from Dharmacon, Inc. (Lafayette, CO). The siRNA was transfected with Lipofectamine RNAiMAX reagent in a final concentration of 25 nM recommended by the manufacturer. Primary human hepatocytes and primary mouse hepatocytes were obtained from the Cell Isolation Core at the University of Kansas Medical Center. Treatments were initiated on the same day of isolation and completed within 24 hours.

Each structure is given as a SMILES string. Entries after “also recorded” stand apart in the source; their conditions may differ.

Take `NS(=O)(=O)OC[C@@H]1C[C@@H](n2ccc3c(N[C@H]4CCc5ccccc54)ncnc32)C[C@@H]1O` [MLN4924, ((1S,2S,4R)-4-(4-((1S)-2,3-dihydro-1H-inden-1-ylamino)-7H-pyrrolo[2,3-d]pyrimidin-7-yl)-2-hydroxycyclopentyl) methyl sulfamate]: the obesity entry in the assay on high fat diet-fed mice was “significantly reduces obesity”. Further, the “plasma glucose in response to insulin after 1 h” value in assay [1] (0.5 U/kg insulin i.p., similar in vehicle group) was ~ 25 mg/dL. The basal glucose entry in assay [1] (6 h fast) is recorded as “lower basal glucose”. Further, in assay [2], the “IRS1 and IRS2 degradation upon insulin stimulation” value is “delayed IRS1 and IRS2 degradation”; the “insulin activation of AKT phosphorylation” value is “increased insulin activation of AKT phosphorylation”. Further, in assay [3] (then 100 nM insulin), the IRS protein abundance result was “increased IRS protein abundance”; the “insulin-stimulated AKT activation” value was “increased IRS protein abundance and insulin-stimulated AKT activation”. In addition, in assay [3] (then 100 nM insulin in time course), the insulin signaling desensitization entry is “significantly delayed cellular insulin desensitization; also recorded: significantly delayed insulin signaling desensitization”.
